From US20090036422A1 (priority 2007, published 2009)
Counter-ions that a name gives are not always drawn.

Molecular target: T1, human orexin-2 (hOX2) receptor (Homo sapiens, UniProt O43614)
T1 construct: expressed in transfected cells
T1 sequence (O43614 1-444): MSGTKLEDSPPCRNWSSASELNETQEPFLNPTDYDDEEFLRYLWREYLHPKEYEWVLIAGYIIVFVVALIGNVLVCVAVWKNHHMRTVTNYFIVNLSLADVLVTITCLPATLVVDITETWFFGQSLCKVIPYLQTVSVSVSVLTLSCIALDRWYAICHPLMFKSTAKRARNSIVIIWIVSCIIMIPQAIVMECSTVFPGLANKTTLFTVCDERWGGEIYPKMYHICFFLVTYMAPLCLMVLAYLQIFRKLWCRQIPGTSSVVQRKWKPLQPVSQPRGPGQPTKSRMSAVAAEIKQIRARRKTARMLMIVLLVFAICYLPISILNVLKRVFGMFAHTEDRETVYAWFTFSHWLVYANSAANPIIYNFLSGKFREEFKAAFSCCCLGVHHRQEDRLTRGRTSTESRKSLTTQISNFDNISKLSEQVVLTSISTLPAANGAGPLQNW
Test: Intracellular Ca2+ mobilization assay (FLIPR), CHO(dHFr-) cells expressing hOX2, orexin-A at EC80 as agonist
Type: cell-based
Settings: Kb=IC50/(1+[A]/EC50); CHO(dHFr-)-OX2R cells, antagonist applied 25 min before orexin-A EC80
Procedure: Intracellular Ca^2+ Mobilization Assay
The Chinese Hamster Ovary (dHFr−) mutant cell line stably expressing human orexin-1 (hOX1) or human orexin-2 (hOX2) receptors were maintained in Dulbecco's Modified Eagle Medium (1×) with GlutaMax™ 1, 4500 mg/L D-Glucose and Sodium Pyruvate (Catalog No. 31966-021, Invitrogen, Carlsbad, Calif.), 5% dialyzed fetal calf serum (Catalog No. 26400-044), 100 μg/ml penicillin and 100 μg/ml streptomycin. The cells were seeded at 5×10^4 cells/well in the poly-D-lysine treated, 96-well, black/clear-bottomed plates (Catalog No. BD356640, BD Biosciences, Palo Alto, Calif.). 24 h later, the cells were loaded for 1 h at 37° C. with 4 μM Flou-4 acetoxymethyl ester (Catalog No. F-14202, Molecular Probes, Eugene, Oreg.) in FLIPR buffer (1×HBSS, 20 mM HEPES, 2.5 mM Probenecid). Hanks' Balanced Salt Solution (HBSS) (10×) (catalog No. 14065-049) and HEPES (1M) (catalog No. 15630-056) were purchased from Invitrogen, Carlsbad, Calif. Probenecid (250 mM) (catalog No. P8761) was from Sigma, Buchs, Switzerland. The cells were washed five times with FLIPR buffer to remove excess dye and intracellular calcium mobilization, [Ca^2+]i were measured using a Fluorometric Imaging Plate Reader (FLIPR-96, Molecular Devices, Menlo Park, Calif.) as described previously (Malherbe et al., Mol. Pharmacol., 64, 823-832, 2003). Orexin A (catalog No. 1455, Toris Cookson Ltd, Bristol, UK) was used as agonist. Orexin A (50 mM stock solution in DMSO) was diluted in FLIPR buffer +0.1% BSA. The EC50 and EC80 values of orexin-A were measured daily from standard agonist concentration-response curves in CHO(dHFr−) —OX1R and —OX2R cell lines. All compounds were dissolved in 100% DMSO. Inhibition curves were determined by addition of 11 concentrations (0.0001-10 μM) of inhibitory compounds and using EC80 value of orexin-A as agonist (a concentration which gave 80% of max agonist response, determined daily). The antagonists were applied 25 min (incubation at 37° C.) before the application of the agonist. Responses were measured as peak increase in fluorescence minus basal, normalized to the maximal stimulatory effect induced by EC80 value of orexin-A or orexin-B. Inhibition curves were fitted according to the Hill equation: y=100/(1+(x/IC50)^nH), where nH=slope factor using Excel-fit 4 software (Microsoft).
Kb values were calculated according to the following equation Kb=IC50/(1+[A]/EC50) where A is the concentration of agonist added which is very close to agonist EC80 value, and IC50 and EC50 values were derived from the antagonist inhibition and orexin-A or B agonist curves, respectively.

Cc1ccc(CCN(C(=O)C(NC(C)(C)CO)c2ccccc2)c2ccc(C)c(C)c2)cc1 (stereo not drawn) [Example 132, N-(3,4-Dimethyl-phenyl)-2-(2-hydroxy-1,1-dimethyl-ethylamino)-2-phenyl-N-(2-p-tolyl-ethyl)-acetamide]
Kb: 0.0642 µM

Cc1ccc(CCN(C(=O)C(NCC2OCCO2)c2ccccc2)c2ccc(C)c(C)c2)cc1 (stereo not drawn) [Example 133, N-(3,4-Dimethyl-phenyl)-2-[([1,3]dioxolan-2-ylmethyl)-amino]-2-phenyl-N-(2-p-tolyl-ethyl)-acetamide]
Kb: 0.007 µM

Cc1ccc(CCN(C(=O)C(NC[C@@H]2CCCO2)c2ccccc2)c2ccc(C)c(C)c2)cc1 (stereo partly drawn) [Example 134, N-(3,4-Dimethyl-phenyl)-2-phenyl-2-{[(S)-1-(tetrahydro-furan-2-yl)methyl]-amino}-N-(2-p-tolyl-ethyl)-acetamide]
Kb: 0.0161 µM

C=COCCNC(C(=O)N(CCc1ccc(C)cc1)c1ccc(C)c(C)c1)c1ccccc1 (stereo not drawn) [Example 135, N-(3,4-Dimethyl-phenyl)-2-phenyl-N-(2-p-tolyl-ethyl)-2-(2-vinyloxy-ethylamino)-acetamide]
Kb: 0.0379 µM

CCOCCNC(C(=O)N(CCc1ccc(C)cc1)c1ccc(C)c(C)c1)c1ccccc1 (stereo not drawn) [Example 136, N-(3,4-Dimethyl-phenyl)-2-(2-ethoxy-ethylamino)-2-phenyl-N-(2-p-tolyl-ethyl)-acetamide]
Kb: 0.0201 µM

NC(C(=O)N(CCc1ccc(C(F)(F)F)cc1)c1ccc2c(c1)CCCC2)c1ccccc1 (stereo not drawn) [Example 137, 2-Amino-2-phenyl-N-(5,6,7,8-tetrahydro-naphthalen-2-yl)-N-[2-(4-trifluoromethyl-phenyl)-ethyl]-acetamide]
Kb: 0.0364 µM

Cc1ccc(N(CCc2ccc(C(F)(F)F)cc2)C(=O)[C@@H](N)c2ccccc2)cc1C [Example 138, (S)-2-Amino-N-(3,4-dimethyl-phenyl)-2-phenyl-N-[2-(4-trifluoromethyl-phenyl)-ethyl]-acetamide]
Kb: 0.0364 µM

CCOc1ccc(N(CCc2ccc(C(F)(F)F)cc2)C(=O)[C@@H](N)c2ccccc2)cc1OCC [Example 140, (S)-2-Amino-N-(3,4-diethoxy-phenyl)-2-phenyl-N-[2-(4-trifluoromethyl-phenyl)-ethyl]-acetamide]
Kb: 0.0127 µM

Cc1ccc(CCN(C(=O)[C@@H](N)c2ccc(F)cc2)c2ccc(C)c(C)c2)cc1 [Example 144, (S)-2-Amino-N-(3,4-dimethyl-phenyl)-2-(4-fluoro-phenyl)-N-(2-p-tolyl-ethyl)-acetamide]
Kb: 0.0174 µM

Cc1ccc(N(CCc2ccc(C(F)(F)F)cc2)C(=O)[C@@H](N)c2ccccc2)cc1 [Example 146, (S)-2-Amino-2-phenyl-N-p-tolyl-N-[2-(4-trifluoromethyl-phenyl)-ethyl]-acetamide]
Kb: 0.0335 µM

N[C@H](C(=O)N(CCc1ccc(C(F)(F)F)cc1)c1ccc(OC(F)F)cc1)c1ccccc1 [Example 148, (S)-2-Amino-N-(4-difluoromethoxy-phenyl)-2-phenyl-N-[2-(4-trifluoromethyl-phenyl)-ethyl]-acetamide]
Kb: 0.0217 µM

N[C@H](C(=O)N(CCc1ccc(C(F)(F)F)cc1)c1ccc2c(c1)CCCC2)c1ccccc1 [Example 150, (S)-2-Amino-2-phenyl-N-(5,6,7,8-tetrahydro-naphthalen-2-yl)-N-[2-(4-trifluoromethyl-phenyl)-ethyl]-acetamide]
Kb: 0.0682 µM

COc1cccc(N(CCc2ccc(C(F)(F)F)cc2)C(=O)[C@@H](N)c2ccccc2)c1 [Example 151, (S)-2-Amino-N-(3-methoxy-phenyl)-2-phenyl-N-[2-(4-trifluoromethyl-phenyl)-ethyl]-acetamide]
Kb: 0.0112 µM

Cc1ccc(N(CCc2ccc(C(F)(F)F)cc2)C(=O)[C@@H](N)c2ccc(F)cc2)cc1C [Example 154, (S)-2-Amino-N-(3,4-dimethyl-phenyl)-2-(4-fluoro-phenyl)-N-[2-(4-trifluoromethyl-phenyl)-ethyl]-acetamide]
Kb: 0.051 µM

CN[C@H](C(=O)N(CCc1ccc(C(F)(F)F)cc1)c1ccc(C)c(C)c1)c1ccccc1OC [Example 157, (S)—N-(3,4-Dimethyl-phenyl)-2-(2-methoxy-phenyl)-2-methylamino-N-[2-(4-trifluoromethyl-phenyl)-ethyl]-acetamide]
Kb: 0.0322 µM

Cc1ccc(N(CCc2ccc(C(F)(F)F)cc2)C(=O)[C@@H](O)c2ccccc2)cc1C [Example 159, (S)—N-(3,4-Dimethyl-phenyl)-2-hydroxy-2-phenyl-N-[2-(4-trifluoromethyl-phenyl)-ethyl]-acetamide]
Kb: 0.0542 µM

COc1cccc(N(CCc2ccc(C(F)(F)F)cc2)C(=O)[C@@H](N)c2ccc(F)cc2)c1 [Example 160]
Kb: 0.0291 µM

Cc1ccc(N(CCc2ccc(C(F)(F)F)cc2)C(=O)[C@@H](O)c2ccc(F)cc2)cc1C [Example 161, (S)—N-(3,4-Dimethyl-phenyl)-2-(4-fluoro-phenyl)-2-hydroxy-N-[2-(4-trifluoromethyl-phenyl)-ethyl]-acetamide]
Kb: 0.0908 µM

COc1cc(N(CCc2ccc(C(F)(F)F)cc2)C(=O)[C@@H](N)c2ccccc2)ccc1C [Example 162, (S)-2-Amino-N-(3-methoxy-4-methyl-phenyl)-2-phenyl-N-[2-(4-trifluoromethyl-phenyl)-ethyl]-acetamide]
Kb: 0.0151 µM

N[C@H](C(=O)N(CCc1ccc(C(F)(F)F)cc1)c1ccc(OC(F)F)c(Cl)c1)c1ccc(F)cc1 [Example 163, (S)-2-Amino-N-(3-chloro-4-difluoromethoxy-phenyl)-2-(4-fluoro-phenyl)-N-[2-(4-trifluoromethyl-phenyl)-ethyl]-acetamide]
Kb: 0.0778 µM

CCOc1ccc(N(CCc2ccc(C(F)(F)F)cc2)C(=O)[C@@H](N)c2ccc(F)cc2)cc1Cl [Example 165, (S)-2-Amino-N-(3-chloro-4-ethoxy-phenyl)-2-(4-fluoro-phenyl)-N-[2-(4-trifluoromethyl-phenyl)-ethyl]-acetamide]
Kb: 0.0673 µM

COc1ccc(N(CCc2ccc(C(F)(F)F)cc2)C(=O)[C@@H](N)c2ccccc2)cc1OC [Example 173, (S)-2-Amino-N-(3,4-dimethoxy-phenyl)-2-phenyl-N-[2-(4-trifluoromethyl-phenyl)-ethyl]-acetamide hydrochloride]
Kb: 0.0011 µM

Cc1ccc(N(CCc2ccc(F)cc2)C(=O)[C@@H](N)c2ccccc2)cc1C [Example 175, (S)-2-Amino-N-(3,4-dimethyl-phenyl)-N-[2-(4-fluoro-phenyl)-ethyl]-2-phenyl-acetamide]
Kb: 0.0219 µM

Cc1ccc(N(CCc2ccc(OC(F)(F)F)cc2)C(=O)[C@@H](N)c2ccccc2)cc1C [Example 176, (S)-2-Amino-N-(3,4-dimethyl-phenyl)-2-phenyl-N-[2-(4-trifluoromethoxy-phenyl)-ethyl]-acetamide]
Kb: 0.0505 µM

Cc1ccc(N(CCc2ccccc2F)C(=O)[C@@H](N)c2ccccc2)cc1C [Example 180, (S)-2-Amino-N-(3,4-dimethyl-phenyl)-N-[2-(2-fluoro-phenyl)-ethyl]-2-phenyl-acetamide hydrochloride]
Kb: 0.036 µM

Cc1cccc(CCN(C(=O)[C@@H](N)c2ccccc2)c2ccc(C)c(C)c2)c1 [Example 181, (S)-2-Amino-N-(3,4-dimethyl-phenyl)-2-phenyl-N-(2-m-tolyl-ethyl)-acetamide hydrochloride]
Kb: 0.0708 µM

Cc1ccc(N(CCc2cccc(F)c2)C(=O)[C@@H](N)c2ccccc2)cc1C [Example 182, (S)-2-Amino-N-(3,4-dimethyl-phenyl)-N-[2-(3-fluoro-phenyl)-ethyl]-2-phenyl-acetamide hydrochloride]
Kb: 0.0283 µM
